The supplement of paper PMC6045584
± gives the standard deviation of the averaged measurements.

Assays:
LENVATINIB = compound: COc1cc2nccc(Oc3ccc(NC(=O)NC4CC4)c(Cl)c3)c2cc1C(N)=O [LENVATINIB]; assay: surviving fraction relative to DMSO-only wells; higher = less growth inhibition; conditions: exposure time: 5 days
Summary of the method: (§1)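 Surviving fraction was calculated by normalising CellTiter-Glo luminescence to the median of DMSO-only wells. Tumour cell lines in log phase were seeded in 384-well plates at 250–500 cells per well, and 24 hours later were exposed continuously for five days to inhibitors at 0.5, 1, 5, 10, 50, 100, 500 and 1000 nM.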

[1] = compound: COc1ccc(-c2cc3c(C)nc(N)nc3n([C@H]3CC[C@H](OCCO)CC3)c2=O)cn1; assay: as above; conditions: exposure time: 5 days
Summary of the method: as §1

| Test System | surviving fraction (LENVATINIB; 0.5 nM) | surviving fraction (LENVATINIB; 1 nM) | surviving fraction (LENVATINIB; 5 nM) | surviving fraction (LENVATINIB; 10 nM) | surviving fraction (LENVATINIB; 50 nM) | surviving fraction (LENVATINIB; 100 nM) | surviving fraction (LENVATINIB; 500 nM) | surviving fraction (LENVATINIB; 1000 nM) | surviving fraction ([1]; 0.5 nM) | surviving fraction ([1]; 1 nM) | surviving fraction ([1]; 5 nM) | surviving fraction ([1]; 10 nM) | surviving fraction ([1]; 50 nM) | surviving fraction ([1]; 100 nM) | surviving fraction ([1]; 500 nM) | surviving fraction ([1]; 1000 nM) |
| --- | --- | --- | --- | --- | --- | --- | --- | --- | --- | --- | --- | --- | --- | --- | --- | --- |
| HCC78 LUNG | 1.08 ± 0.28 | 1.02 ± 0.24 | 0.93 ± 0.32 | 1.04 ± 0.22 | 1.08 ± 0.044 | 1.07 ± 0.22 | 1.02 ± 0.1 | 0.978 ± 0.14 | 0.928 ± 0.31 | 0.845 ± 0.15 | 0.653 ± 0.27 | 0.588 ± 0.17 | 0.28 ± 0.048 | 0.104 ± 0.0093 | 0.022 ± 0.0044 | 0.0197 ± 0.0023 |
| NY BONE | 1.01 ± 0.073 | 1.04 ± 0.048 | 1.05 ± 0.048 | 1.02 ± 0.065 | 1.04 ± 0.045 | 1.05 ± 0.018 | 0.869 ± 0.023 | 0.674 ± 0.007 | 0.925 ± 0.027 | 0.916 ± 0.038 | 0.909 ± 0.022 | 0.84 ± 0.047 | 0.668 ± 0.029 | 0.602 ± 0.028 | 0.369 ± 0.019 | 0.317 ± 0.0068 |
| T47D BREAST | 1.09 ± 0.018 | 1.09 ± 0.018 | 1.08 ± 0.044 | 1.06 ± 0.057 | 1.1 ± 0.028 | 1.13 ± 0.046 | 1.12 ± 0.064 | 1.1 ± 0.023 | 0.993 ± 0.043 | 0.975 ± 0.021 | 0.959 ± 0.02 | 0.913 ± 0.013 | 0.638 ± 0.018 | 0.414 ± 0.022 | 0.196 ± 0.0079 | 0.148 ± 0.0018 |
| SG28 HEADNECK | 1.01 ± 0.091 | 1.06 ± 0.058 | 1.04 ± 0.011 | 1.08 ± 0.072 | 1.09 ± 0.097 | 0.966 ± 0.069 | 1.1 ± 0.069 | 1.08 ± 0.097 | 1.042 ± 0.0068 | 1.033 ± 0.0092 | 0.998 ± 0.1 | 0.899 ± 0.058 | 0.691 ± 0.036 | 0.621 ± 0.057 | 0.3 ± 0.0047 | 0.242 ± 0.005 |
| SUM159 BREAST | 1.16 ± 0.15 | 1.15 ± 0.11 | 1.11 ± 0.096 | 1.13 ± 0.12 | 1.08 ± 0.034 | 1.04 ± 0.088 | 1.08 ± 0.021 | 1.08 ± 0.017 | 1.1 ± 0.16 | 1.12 ± 0.18 | 1.1 ± 0.17 | 1.1 ± 0.17 | 1.05 ± 0.074 | 0.839 ± 0.036 | 0.181 ± 0.014 | 0.119 ± 0.006 |
| MDAMB134 BREAST | 1.12 ± 0.079 | 1.08 ± 0.044 | 1.16 ± 0.069 | 1.09 ± 0.011 | 1.29 ± 0.13 | 1.32 ± 0.14 | 0.972 ± 0.15 | 1.05 ± 0.057 | 0.973 ± 0.12 | 0.869 ± 0.11 | 0.864 ± 0.061 | 0.839 ± 0.19 | 0.639 ± 0.11 | 0.682 ± 0.064 | 0.361 ± 0.0042 | 0.293 ± 0.05 |
| SG27 HEADNECK | 1.15 ± 0.18 | 1.11 ± 0.028 | 1.12 ± 0.093 | 1.1 ± 0.052 | 1.04 ± 0.21 | 0.985 ± 0.13 | 0.928 ± 0.025 | 0.957 ± 0.055 | 1.03 ± 0.11 | 1.02 ± 0.12 | 0.945 ± 0.042 | 0.935 ± 0.11 | 0.834 ± 0.21 | 0.703 ± 0.048 | 0.424 ± 0.0087 | 0.357 ± 0.039 |
| 93VU HEADNECK | 1.05 ± 0.044 | 1.11 ± 0.074 | 1.09 ± 0.12 | 1.167 ± 0.0038 | 1.18 ± 0.087 | 1.19 ± 0.086 | 0.99 ± 0.036 | 1.11 ± 0.024 | 0.94 ± 0.015 | 0.995 ± 0.14 | 0.923 ± 0.075 | 0.979 ± 0.044 | 0.582 ± 0.14 | 0.351 ± 0.068 | 0.0697 ± 0.0051 | 0.047 ± 0.0046 |
| HCC1954 BREAST | 0.904 ± 0.058 | 0.817 ± 0.05 | 1.0393 ± 0.00035 | 0.917 ± 0.04 | 0.993 ± 0.058 | 0.988 ± 0.011 | 1.03 ± 0.11 | 1.11 ± 0.067 | 0.993 ± 0.024 | 0.945 ± 0.056 | 1.153 ± 0.0064 | 1.03 ± 0.044 | 0.487 ± 0.08 | 0.322 ± 0.047 | 0.0592 ± 0.0095 | 0.0478 ± 0.0011 |
| S68 BREAST | 0.924 ± 0.35 | 0.961 ± 0.079 | 0.971 ± 0.29 | 1.18 ± 0.2 | 1.09 ± 0.091 | 1.1 ± 0.26 | 0.858 ± 0.34 | 1.16 ± 0.22 | 0.953 ± 0.24 | 0.88 ± 0.11 | 0.993 ± 0.2 | 0.845 ± 0.18 | 0.334 ± 0.082 | 0.16 ± 0.02 | 0.0503 ± 0.0051 | 0.034 ± 0.001 |
| PCI30 HEADNECK | 0.998 ± 0.031 | 1.08 ± 0.06 | 1.06 ± 0.082 | 1.07 ± 0.057 | 1.14 ± 0.084 | 1.11 ± 0.08 | 1.11 ± 0.073 | 1.17 ± 0.06 | 0.935 ± 0.034 | 0.947 ± 0.079 | 0.902 ± 0.023 | 0.963 ± 0.1 | 0.716 ± 0.028 | 0.495 ± 0.033 | 0.181 ± 0.004 | 0.151 ± 0.0076 |
| MCF7 BREAST | 0.954 ± 0.061 | 0.903 ± 0.056 | 0.954 ± 0.059 | 0.931 ± 0.076 | 0.971 ± 0.034 | 0.978 ± 0.11 | 0.942 ± 0.03 | 0.934 ± 0.073 | 0.875 ± 0.029 | 0.851 ± 0.016 | 0.807 ± 0.027 | 0.764 ± 0.058 | 0.527 ± 0.0077 | 0.358 ± 0.0078 | 0.185 ± 0.0036 | 0.181 ± 0.0076 |
| HOSMNG BONE | 1.02 ± 0.036 | 1.03 ± 0.023 | 0.964 ± 0.06 | 1.02 ± 0.043 | 1.11 ± 0.033 | 1.07 ± 0.036 | 1.09 ± 0.067 | 1.05 ± 0.091 | 1.03 ± 0.058 | 1.01 ± 0.087 | 1.04 ± 0.037 | 0.947 ± 0.034 | 0.944 ± 0.082 | 0.81 ± 0.033 | 0.348 ± 0.0079 | 0.186 ± 0.0096 |
| SJSA1 BONE | 1.04 ± 0.034 | 1.02 ± 0.034 | 1.09 ± 0.087 | 1.09 ± 0.051 | 1.15 ± 0.014 | 1.07 ± 0.029 | 1.03 ± 0.022 | 0.997 ± 0.015 | 1.04 ± 0.035 | 0.976 ± 0.023 | 0.989 ± 0.058 | 0.941 ± 0.027 | 0.743 ± 0.059 | 0.671 ± 0.028 | 0.2 ± 0.011 | 0.116 ± 0.0015 |
| HCT15 LARGE INTESTINE | 1.09 ± 0.031 | 1.08 ± 0.039 | 1.08 ± 0.031 | 1.09 ± 0.063 | 1.13 ± 0.052 | 1.17 ± 0.061 | 1.12 ± 0.028 | 1.14 ± 0.021 | 0.981 ± 0.029 | 1.04 ± 0.051 | 1.01 ± 0.016 | 0.975 ± 0.021 | 0.76 ± 0.016 | 0.543 ± 0.04 | 0.16 ± 0.013 | 0.091 ± 0.0046 |
| SG32 HEADNECK | 1.21 ± 0.15 | 1.38 ± 0.028 | 1.15 ± 0.14 | 1.13 ± 0.2 | 1.05 ± 0.15 | 1.12 ± 0.2 | 1.41 ± 0.35 | 1.15 ± 0.12 | 1.08 ± 0.076 | 1.09 ± 0.38 | 1.02 ± 0.11 | 1.34 ± 0.31 | 1.04 ± 0.095 | 0.982 ± 0.14 | 0.432 ± 0.086 | 0.263 ± 0.044 |
| CADOES1 SOFT TISSUE | 0.975 ± 0.14 | 0.885 ± 0.14 | 0.859 ± 0.14 | 0.885 ± 0.049 | 0.897 ± 0.1 | 0.836 ± 0.11 | 0.839 ± 0.075 | 0.842 ± 0.17 | 0.956 ± 0.11 | 0.921 ± 0.061 | 0.911 ± 0.058 | 0.781 ± 0.045 | 0.633 ± 0.11 | 0.49 ± 0.025 | 0.193 ± 0.033 | 0.12 ± 0.0096 |
| CME SYNOVIAL | 1.28 ± 0.14 | 1.25 ± 0.12 | 1.18 ± 0.092 | 1.17 ± 0.3 | 1.22 ± 0.076 | 1.1 ± 0.038 | 0.847 ± 0.074 | 0.91 ± 0.029 | 1.01 ± 0.027 | 1.09 ± 0.2 | 1.04 ± 0.042 | 1.12 ± 0.045 | 0.743 ± 0.083 | 0.681 ± 0.051 | 0.252 ± 0.022 | 0.28 ± 0.019 |
| HCC1806 BREAST | 1.02 ± 0.018 | 0.932 ± 0.099 | 1.12 ± 0.13 | 1.13 ± 0.089 | 1.24 ± 0.079 | 1.1 ± 0.13 | 0.961 ± 0.088 | 0.941 ± 0.13 | 1.08 ± 0.14 | 1.1 ± 0.042 | 1.12 ± 0.18 | 1.05 ± 0.094 | 0.993 ± 0.059 | 0.754 ± 0.1 | 0.366 ± 0.037 | 0.215 ± 0.0097 |
| MDAMB361 BREAST | 0.893 ± 0.098 | 0.873 ± 0.034 | 0.959 ± 0.032 | 0.865 ± 0.035 | 0.941 ± 0.08 | 0.978 ± 0.066 | 0.928 ± 0.063 | 0.763 ± 0.063 | 0.905 ± 0.065 | 0.953 ± 0.1 | 0.852 ± 0.056 | 0.775 ± 0.096 | 0.78 ± 0.082 | 0.604 ± 0.026 | 0.248 ± 0.02 | 0.205 ± 0.028 |
